Values of other authors as cited in patent publication US20230201308A1, “TREATMENT OF CORONAVIRUS INFECTION WITH […]” (Eiger Biopharmaceuticals, Inc., priority 2020, published 2023).

System: SARS-CoV-2
Details: BLAZE trial; placebo group 15%; cited from earlier work

bamlanivimab
hospitalization in the treatment group: placebo group to 4% in the treatment group. Despite the more potent antiviral effect
